Where a name gives a salt, the structure may show the parent alone.
Tests used:
DNMT1 = DNMT1 (Homo sapiens, UniProt P26358); test: DNMT1 biochemical activity, breaklight assay and/or SPA assay; conditions: for DNMT1 BioChemical (pIC50 category): binned activity in either the breaklight or the SPA assay
[1] = tested on: erythroid progenitor cells (EPCs); test: Fetal hemoglobin (HbF) ELISA in day 7 erythroid progenitor cells; type: cell-based, human; conditions: Homo sapiens, Erythroid progenitor cell, HbF ELISA, day 7 EPCs, 5 days; read-out: EPC ELISA (pEC50 category) (converted);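 also: for fetal hemoglobin induction normalized to vehicle-treated cells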
In short: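 CD34+-derived EPCs, 1,000 cells/well, rhEPO 3 U/mL; Compound A 22-pt series, […]; 5 d, 37° C, 5% CO2. Freeze-thaw lysis, anti-HbF capture + HRP anti-HbF, TMB, OD450. Normalized to DMSO wells.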

DNMT1, sequence (P26358 whole entry, looked up): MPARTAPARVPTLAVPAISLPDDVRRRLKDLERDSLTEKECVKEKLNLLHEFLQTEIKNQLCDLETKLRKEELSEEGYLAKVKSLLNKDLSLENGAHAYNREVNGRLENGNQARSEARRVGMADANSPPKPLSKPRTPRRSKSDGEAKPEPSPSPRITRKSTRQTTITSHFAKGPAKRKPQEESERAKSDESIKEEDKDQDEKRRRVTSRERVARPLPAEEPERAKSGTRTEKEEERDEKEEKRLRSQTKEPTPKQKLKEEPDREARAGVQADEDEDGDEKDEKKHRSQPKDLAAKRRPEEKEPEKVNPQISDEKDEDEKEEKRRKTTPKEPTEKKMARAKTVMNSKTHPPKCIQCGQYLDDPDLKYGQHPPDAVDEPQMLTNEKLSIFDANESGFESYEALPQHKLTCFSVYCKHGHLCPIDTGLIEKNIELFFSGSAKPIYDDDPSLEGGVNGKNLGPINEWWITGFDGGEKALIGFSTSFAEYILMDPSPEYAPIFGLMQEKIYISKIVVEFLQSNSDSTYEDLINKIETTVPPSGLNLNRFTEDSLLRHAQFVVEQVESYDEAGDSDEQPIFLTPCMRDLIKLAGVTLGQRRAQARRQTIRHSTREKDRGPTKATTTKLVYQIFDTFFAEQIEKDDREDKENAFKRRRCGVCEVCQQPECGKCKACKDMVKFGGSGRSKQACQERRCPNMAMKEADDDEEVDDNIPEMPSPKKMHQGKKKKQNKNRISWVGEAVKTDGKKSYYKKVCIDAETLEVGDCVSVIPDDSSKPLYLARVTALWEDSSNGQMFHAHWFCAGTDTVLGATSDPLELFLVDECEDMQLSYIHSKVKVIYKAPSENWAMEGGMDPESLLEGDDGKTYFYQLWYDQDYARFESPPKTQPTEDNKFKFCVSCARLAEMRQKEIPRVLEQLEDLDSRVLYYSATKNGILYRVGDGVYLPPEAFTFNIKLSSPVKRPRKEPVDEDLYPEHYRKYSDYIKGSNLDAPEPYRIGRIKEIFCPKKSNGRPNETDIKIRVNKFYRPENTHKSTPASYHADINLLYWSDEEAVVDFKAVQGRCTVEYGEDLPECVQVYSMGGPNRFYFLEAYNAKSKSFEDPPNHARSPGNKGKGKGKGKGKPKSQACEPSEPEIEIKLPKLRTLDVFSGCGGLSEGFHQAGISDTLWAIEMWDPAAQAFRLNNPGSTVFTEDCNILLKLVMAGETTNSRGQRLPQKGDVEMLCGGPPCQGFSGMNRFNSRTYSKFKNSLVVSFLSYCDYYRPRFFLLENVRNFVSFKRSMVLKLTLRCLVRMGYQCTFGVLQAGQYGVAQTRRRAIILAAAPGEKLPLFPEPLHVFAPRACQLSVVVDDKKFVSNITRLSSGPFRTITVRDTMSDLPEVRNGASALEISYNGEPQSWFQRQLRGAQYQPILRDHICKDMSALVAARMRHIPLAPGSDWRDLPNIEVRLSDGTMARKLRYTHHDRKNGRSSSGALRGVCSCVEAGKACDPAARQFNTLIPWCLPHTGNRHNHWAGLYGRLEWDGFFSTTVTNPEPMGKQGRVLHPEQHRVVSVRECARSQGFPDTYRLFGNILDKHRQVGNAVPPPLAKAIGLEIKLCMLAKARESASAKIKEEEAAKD

DNMT1 BioChemical (pIC50 category) (DNMT1)	EC50 [1]	average pIC50 against DNMT1 (DNMT1; breaklight assay and/or SPA assay, repeated experimental runs)	IC50 (DNMT1; breaklight assay and/or SPA assay, repeated experimental runs, read-out: average pIC50 against DNMT1 (converted))	SMILES
D (Category D: ≥6.5)	< 316 nM			CCc1c(C#N)c(SC(C(N)=O)c2ccccc2)nc(N(C)CC(=O)N2CCC2)c1C#N (stereo not drawn) [Example 631, 2-((6-((2-(azetidin-1-yl)-2-oxoethyl)(methyl)amino)-3,5-dicyano-4-ethylpyridin-2-yl)thio)-2-phenylacetamide]
D (Category D: ≥6.5)	1000 to 31600 nM			CCc1c(C#N)c(SC(C(N)=O)c2ccccc2)nc(N2CC[C@@](F)(CN)C2)c1C#N (stereo partly drawn) [Example 632, 2-((6-((R)-3-(aminomethyl)-3-fluoropyrrolidin-1-yl)-3,5-dicyano-4-ethylpyridin-2-yl)thio)-2-phenylacetamide]
D (Category D: ≥6.5)	< 316 nM			CCc1c(C#N)c(SC(C(N)=O)c2ccccc2)nc(N(C)CC(=O)N2CC(O)C2)c1C#N (stereo not drawn) [Example 633, 2-((3,5-dicyano-4-ethyl-6-((2-(3-hydroxyazetidin-1-yl)-2-oxoethyl)(methyl)amino)pyridin-2-yl)thio)-2-phenylacetamide]
D (Category D: ≥6.5)	1000 to 31600 nM			CCc1c(C#N)c(SC(C(N)=O)c2ccccc2)nc(N2CCC(ONC(=N)N)CC2)c1C#N (stereo not drawn) [Example 634, 2-((3,5-dicyano-4-ethyl-6-(4-(guanidinooxy)piperidin-1-yl)pyridin-2-yl)thio)-2-phenylacetamide]
D (Category D: ≥6.5)	< 316 nM			CCc1c(C#N)c(SC(C(N)=O)c2ccccc2)nc(N2CCC[C@@H](NC)C2)c1C#N (stereo partly drawn) [Example 636, 2-((3,5-dicyano-4-ethyl-6-((R)-3-(methylamino)piperidin-1-yl)pyridin-2-yl)thio)-2-phenylacetamide]
D (Category D: ≥6.5)	1000 to 31600 nM			CCc1c(C#N)c(SC(C(N)=O)c2ccccc2)nc(N(C)CC(=O)N2C[C@@H](CO)[C@@H](O)C2)c1C#N (stereo partly drawn) [Example 637, 2-((3,5-dicyano-4-ethyl-6-((2-((3R,4S)-3-hydroxy-4-(hydroxymethyl)pyrrolidin-1-yl)-2-oxoethyl)(methyl)amino)pyridin-2-yl)thio)-2-phenylacetamide]
D (Category D: ≥6.5)	316 to 1000 nM			CCc1c(C#N)c(S[C@@H](C(N)=O)c2ccccc2)nc(N2CC[C@](F)(CN)C2)c1C#N [Example 638, (R)-2-((6-((S)-3-(aminomethyl)-3-fluoropyrrolidin-1-yl)-3,5-dicyano-4-ethylpyridin-2-yl)thio)-2-phenylacetamide]
D (Category D: ≥6.5)	1000 to 31600 nM			CN(CC(=O)NC(CO)CO)c1nc(SC(C(N)=O)c2ccccc2)c(C#N)c(C2CC2)c1C#N (stereo not drawn) [Example 639, 2-((6-((2-amino-2-oxo-1-phenylethyl)thio)-3,5-dicyano-4-cyclopropylpyridin-2-yl)(methyl)amino)-N-(1,3-dihydroxypropan-2-yl)acetamide]
D (Category D: ≥6.5)	< 316 nM			CCc1c(C#N)c(SC(C(N)=O)c2ccccc2)nc(N2CCC[C@H](NC3COC3)C2)c1C#N (stereo partly drawn) [Example 640, 2-((3,5-dicyano-4-ethyl-6-((S)-3-(oxetan-3-ylamino)piperidin-1-yl)pyridin-2-yl)thio)-2-phenylacetamide]
D (Category D: ≥6.5)	1000 to 31600 nM			CN(CC(=O)N(CCO)CCO)c1nc(SC(C(N)=O)c2ccccc2)c(C#N)c(C2CC2)c1C#N (stereo not drawn) [Example 641, 2-((6-((2-amino-2-oxo-1-phenylethyl)thio)-3,5-dicyano-4-cyclopropylpyridin-2-yl)(methyl)amino)-N,N-bis(2-hydroxyethyl)acetamide]
D (Category D: ≥6.5)	< 316 nM			CCc1c(C#N)c(SC(C(N)=O)c2ccccc2)nc(N2CCC(C)(NCCO)CC2)c1C#N (stereo not drawn) [Example 643, 2-((3,5-dicyano-4-ethyl-6-(4-((2-hydroxyethyl)amino)-4-methylpiperidin-1-yl)pyridin-2-yl)thio)-2-phenylacetamide]
D (Category D: ≥6.5)	1000 to 31600 nM			CCc1c(C#N)c(SC(C(N)=O)c2ccccc2)nc(N(C)CCONC(=N)N)c1C#N (stereo not drawn) [Example 644, 2-((3,5-dicyano-4-ethyl-6-((2-(guanidinooxy)ethyl)(methyl)amino)pyridin-2-yl)thio)-2-phenylacetamide]
D (Category D: ≥6.5)	< 316 nM			CCc1c(C#N)c(SC(C(N)=O)c2ccccc2)nc(N(C)CC(=O)N2CCO[C@H](CO)C2)c1C#N (stereo partly drawn) [Example 646, 2-((3,5-dicyano-4-ethyl-6-((2-((S)-2-(hydroxymethyl)morpholino)-2-oxoethyl)(methyl)amino)pyridin-2-yl)thio)-2-phenylacetamide]
D (Category D: ≥6.5)	316 to 1000 nM			CCc1c(C#N)c(SC(C(N)=O)c2ccccc2)nc(N(C)CC(=O)N2C[C@@H](O)[C@@H](O)C2)c1C#N (stereo partly drawn) [Example 647, 2-((3,5-dicyano-6-((2-((cis)-3,4-dihydroxypyrrolidin-1-yl)-2-oxoethyl)(methyl)amino)-4-ethylpyridin-2-yl)thio)-2-phenylacetamide]
D (Category D: ≥6.5)	< 316 nM			CCc1c(C#N)c(SC(C(N)=O)c2ccccc2)nc(N(C)CC(=O)N2CC[C@H](CO)C2)c1C#N (stereo partly drawn) [Example 648, 2-((3,5-dicyano-4-ethyl-6-((2-((S)-3-(hydroxymethyl)pyrrolidin-1-yl)-2-oxoethyl)(methyl)amino)pyridin-2-yl)thio)-2-phenylacetamide]
D (Category D: ≥6.5)	1000 to 31600 nM	> 6.5	126 nM	CCc1c(C#N)c(SC(C(N)=O)c2ccccc2)nc(N(C)CC(=O)N2C[C@@H](CO)[C@H](O)C2)c1C#N (stereo partly drawn) [Example 649]
D (Category D: ≥6.5)	1000 to 31600 nM			CCc1c(C#N)c(SCc2ccc(N(C)S(C)(=O)=O)cc2)nc(N2CC[C@H](CNC(=O)CN)C2)c1C#N [Example 650, (R)-2-amino-N-((1-(3,5-dicyano-4-ethyl-6-((4-(N-methylmethylsulfonamido)benzyl)thio)pyridin-2-yl)pyrrolidin-3-yl)methyl)acetamide]

SMILES	DNMT1 BioChemical (pIC50 category) (DNMT1)	EC50 [1]	average pIC50 against DNMT1 (DNMT1; breaklight assay and/or SPA assay, repeated experimental runs)	IC50 (DNMT1; breaklight assay and/or SPA assay, repeated experimental runs, read-out: average pIC50 against DNMT1 (converted))
CCc1c(C#N)c(SC(C(N)=O)c2ccccc2)nc(N(C)CC(=O)NCCN)c1C#N (stereo not drawn) [Example 630, 2-((6-((2-amino-2-oxo-1-phenylethyl)thio)-3,5-dicyano-4-ethylpyridin-2-yl)(methyl)amino)-N-(2-aminoethyl)acetamide hydrochloride]	D (Category D: ≥6.5)	< 316 nM		
N#Cc1c(SC(C(N)=O)c2ccccc2)nc(N2CCC(NC(=O)CN)CC2)c(C#N)c1C1CC1 (stereo not drawn) [Example 642, 2-amino-N-(1-(6-((2-amino-2-oxo-1-phenylethyl)thio)-3,5-dicyano-4-cyclopropylpyridin-2-yl)piperidin-4-yl)acetamide formate]	D (Category D: ≥6.5)	1000 to 31600 nM		
CCc1c(C#N)c(SC(C(N)=O)c2ccccc2)nc(N2CCC(NCCN)CC2)c1C#N (stereo not drawn) [Example 645, 2-((6-(4-((2-aminoethyl)amino)piperidin-1-yl)-3,5-dicyano-4-ethylpyridin-2-yl)thio)-2-phenylacetamide dihydrochloride]	D (Category D: ≥6.5)	316 to 1000 nM		

From patent US10975056B2 (GlaxoSmithKline Intellectual Property Development Limited, priority 2016, dated 2021)
